Source: US4221794A, “Method of imparting immunomodulating and antiviral activity” (Newport Pharmaceuticals International, Inc., priority 1979, dated 1980)
Values joined by “and” are separate entries in the source; they are usually repeats but may differ in a detail not shown here. Equal values may be shown once.

Experiments:
influenza virus [1] = test: microbe, parasite or virus in culture; assay type: cell-based, influenza virus Type A/USSR 90 (HeLa cell cultures); settings: for inhibition at 100 µg/mL: read-out: % Inhibition of Hemadsorption Foci, Test Compound Conc. >100 μg/ml
influenza virus [2] = test: Anti-influenza activity (overall); assay type: cell-based, several strains of A and B sub-types
mouse lymphocytes = test: Mitogen (Con A) induced mouse lymphocyte (spleen cell) proliferation; assay type: cell-based; settings: for Maximum Percent Change, Mitogen Induced (Con A) Mouse Lymph. Prolif.: plus = immunostimulating, minus = immunoinhibiting, 0 = neither
From the text: The following three assay procedures are used to evaluate the ability of the test substances to modulate the activity of several classes of cells in the immune system. In these systems it is possible to identify both immunopotentiating activity (evidence by an enhancement of the parameter examined) as well as immunosuppressant activity (evidenced by an inhibition of the parameter examined).
1. Mitogen-Induced Mouse Spleen Cell Assay
Mouse spleen cells contain a population of both B and T lymphocytes which can be stimulated by a number of foreign substances (e.g., plant mitogens such as Con A) to proliferate. This enhanced proliferation is an indication of enhanced cell mediated immunity. The method below describes the system used to evaluate test substances as immunopotentiators.
Concanavalin A (Calbiochem, La Jolla, California), Lot #210073, lyophilized in NaCl, was prepared first as a 1% solution and diluted as a 2×concentration for each dilution (0.5, 1.0, 2.5 μg/ml).
Six to eight week old male Balb/c and C3 H inbred mice were obtained from the following sources: Flow Research Animals, Inc., Dublin, Virginia; Charles River Breeding Laboratories, Wilmington, Massachusetts; Laboratory Supply Company, Indianapolis, Indiana; and Lionel Strong Foundation, San Diego, California.
Three to five mice were sacrificed by cervical dislocation and the spleens aseptically removed. Pooled spleens were minced and teased with sterile forceps; then strained through a double layer of nylon mesh. The cell suspension was washed once with 15 ml of RPMI 1640 supplemented with 5% fetal calf serum and antibiotics. Cells were cultured at a concentration of 10^6 cells/0.1 ml/well in micro-plates. Cultures were incubated in the presence or absence of mitogen in a humidified atmosphere containing 5% CO2 for 48 hours. The test compound was added to cultures at various concentrations concommitant with mitogen.
Proliferation was assayed by the degree of incorporation of 1.0 μCi of [^3 H] thymidine over an 18 hour incubation period. Cultures were harvested by a MASH unit (Otto Hiller Co., Madison, Wisconsin) and thymidine incorporation was assayed by liquid scintillation spectrometry. Cultures were performed in triplicate and data are expressed as means plus or minus the standard error of the experimental means. Drug stimulation indices over control values were also calculated and portrayed graphically.
(§1) Table 4 above presents the results of an evaluation of a number of these subject compounds as potentiators of the immune response. Three different test systems were used. The first involves a measure of the ability of the test compound to enhance the ability of mouse lymphocytes to proliferate in response to a plant mitogen (Con A). The second involves measuring the ability of the test compounds to enhance human lymphocyte proliferation in response to a second plant mitogen (PHA). The third system measures the ability of these test substances to enhance macrophage proliferation in response to a natural lymphokine (MMF, Macrophage Mitogenic Factor).

guinea pig macrophages = test: Lymphokine (MMF) induced guinea pig macrophage proliferation; assay type: cell-based; settings: plus = immunostimulating, minus = immunoinhibiting, 0 = neither
Experimental: 3. The macrophage represents a subpopulation of white blood cells which is an important component of the immune system in control of both cellular and humoral immunity. The assay system described below evaluates the substances studied as potentiators of macrophage function.
Phytohemagglutinin (PHA) (HA-17) was purchased from Burroughs Wellcome. A preparation containing Macrophage Mitogen Factor (MMF) and Macrophage Activating Factor (MAF) was prepared from antigen-stimulated immune lymph node lymphocytes (guinea pig) as previously described by Hadden et al, Nature 257, 483-485 (1975). […] The active fraction was employed in both the proliferation and activation assays.
Ficoll-hypaque purified human peripheral blood lymphocytes were prepared and PHA-induced lymphocyte proliferation was assayed by the incorporation of tritiated thymidine as described in Hadden et al., Cell. Immunol. 20, 98-103 (1975). Each compound was analyzed in the presence of suboptimal, optimal and supraoptimal concentrations of PHA (0.001, 0.01, 0.1 units/ml respectively). Paraffin oil-induced guinea pig peritoneal macrophages were prepared and incubated as monolayer culture (>98% pure macrophages). Lymphokine (MMF)-induced proliferation was assayed by the incorporation of tritiated thymidine at 3 and 5 days of culture as described, Hadden et al, Nature 257, 483-485 (1975). Lymphokine (MAF)-induced macrophage activation to kill Listeria monocytogenes following 5 days of culture in the presence or absence of MAF was performed during a 6 hour period as described in Hadden and England, Immunopharmacology, pages 87-100 (Plenum Press, 1977). Phagocytosis was quantitated during a 20-minute exposure to Listeria monocytogenes by counting the number of macrophages containing bacteria and the number of bacteria per phagocytic cell on gram stained monolayers in Labtek chambers. Intracellular killing of bacteria was evaluated by counting the number of cells containing bacteria and the number of bacteria/cell 6 hours after the initial 20 minute exposure. Parallel experiments in which macrophages were lysed and intracellular bacteria were cultured confirm the validity of bacterial activity determined by this manner in this system. The drugs were employed in each of the three systems over serial log concentration range in triplicate in the presence and absence of mitogen or lymphokine. Each type of experiment was performed at least three times. Previous experiments indicate a parallelism of response to pharmacologic modulation in the proliferation and achivation assays.
as §1

[3] = test system: human peripheral blood lymphocytes; test: Mitogen (PHA) induced human lymphocyte proliferation; assay type: cell-based; settings: plus = immunostimulating, minus = immunoinhibiting, 0 = neither
[4] = test system: Influenza A Swine 1976 (Hlsw -N1); assay type: cell-based; settings: listed as 15417
[5] = 1.0-10 (unit not printed), listed as 15417

OCCn1cnc2c(S)ncnc21 [NPT 15437]
inhibition at 100 µg/mL (influenza virus [1]; unidentified influenza virus): 65%
potentiation of anti-influenza activity by DIP.PAcBA salt (influenza virus [2]): Yes

CC(O)Cn1cnc2c(=O)[nH]cnc21 (stereo not shown) [NPT 15447]
% Inhibition of Hemadsorption Foci (influenza virus [1]; Test Compound Conc. <10 μg/ml, listed as 15447): 10%
% Inhibition of Hemadsorption Foci (influenza virus [1]; Test Compound Conc. >100 μg/ml, listed as 15447): 34%
potentiation of anti-influenza activity by DIP.PAcBA salt (influenza virus [2]): Yes

CC(CO)n1cnc2c(=O)[nH]cnc21 (stereo not shown) [NPT 15443, 9-(1-HYDROXY-2-PROPYL)HYPOXANTHINE]
Maximum Percent Change, Mitogen Induced (Con A) Mouse Lymph. Prolif. (mouse lymphocytes; 1.0-10 (unit not given)): +27%
Maximum Percent Change, Mitogen Induced (Con A) Mouse Lymph. Prolif. (mouse lymphocytes; 10-100 (unit not given)): +27%
Maximum Percent Change, Mitogen Induced (Con A) Mouse Lymph. Prolif. (mouse lymphocytes; .01-1.0 (unit not given)): +17%
% Inhibition of Hemadsorption Foci (influenza virus [1]; Test Compound Conc. >100 μg/ml, listed as 15443): 0%
Maximum Percent Change, Lymphokine Induced (MMF) Guinea Pig Mac. Prolif. (guinea pig macrophages; 1.0-10 (unit not given)): 0%
Maximum Percent Change, Lymphokine Induced (MMF) Guinea Pig Mac. Prolif. (guinea pig macrophages; .01-1.0 (unit not given)): +20%
Maximum Percent Change, Mitogen Induced (PHA) Human Lymph. Prolif. ([3]; 1.0-10 (unit not given)): +13%
Maximum Percent Change, Mitogen Induced (PHA) Human Lymph. Prolif. ([3]; 10-100 (unit not given)): 0%
Maximum Percent Change, Mitogen Induced (PHA) Human Lymph. Prolif. ([3]; .01-1.0 (unit not given)): 0%

CC(CO)n1cnc2c(=O)[nH]cnc21 (stereo not shown) [NPT 15444]
% Inhibition of Hemadsorption Foci (influenza virus [1]; Test Compound Conc. >100 μg/ml, listed as 15444): 54%
potentiation of anti-influenza activity by DIP.PAcBA salt (influenza virus [2]): Yes

CCCCCCC(CO)n1cnc2c(=O)[nH]cnc21 (stereo not shown) [NPT 15417]
% Inhibition [4]: 50-70% and > 70%
% Stimulation, Mitogen Induced Murine Lymphocyte Proliferation (mouse lymphocytes; 01-1.0 μg/ml, listed as 15417): 0%
% Stimulation, Mitogen Induced Murine Lymphocyte Proliferation (mouse lymphocytes; 1.0-10 μg/ml, listed as 15417): 0%
Maximum Percent Change, Mitogen Induced (Con A) Mouse Lymph. Prolif. (mouse lymphocytes; [5]): 0%
% Stimulation, Mitogen Induced Murine Lymphocyte Proliferation (mouse lymphocytes; 10-100 μg/ml, listed as 15417): 0%
Maximum Percent Change, Mitogen Induced (Con A) Mouse Lymph. Prolif. (mouse lymphocytes; 10-100 (unit not printed), listed as 15417): 0%
Maximum Percent Change, Mitogen Induced (Con A) Mouse Lymph. Prolif. (mouse lymphocytes; .01-1.0 (unit not printed), listed as 15417): 0%
% Stimulation, Mitogen Induced Murine Lymphocyte Proliferation (mouse lymphocytes; >100 μg/ml): 0%
inhibition at 10 µg/mL (influenza virus [1]; unidentified influenza virus, read-out: % Inhibition of Hemadsorption Foci, Test Compound Conc. <10 μg/ml): 18%
inhibition at 100 µg/mL (influenza virus [1]; unidentified influenza virus): 60%
anti-influenza activity (in words) (influenza virus [2]; compound by itself): significant anti-influenza activity
inhibit the replication of different strains of influenza virus (number of strains) (influenza virus [2]; concentrations ranging from 1-150 μg/ml): at least 4 different strains
Maximum Percent Change, Lymphokine Induced (MMF) Guinea Pig Mac. Prolif. (guinea pig macrophages; [5]): 13%
Maximum Percent Change, Lymphokine Induced (MMF) Guinea Pig Mac. Prolif. (guinea pig macrophages; 10-100 (unit not given)): -50%
Maximum Percent Change, Mitogen Induced (PHA) Human Lymph. Prolif. ([3]; 1.0-10 (unit not given)): 0%
Maximum Percent Change, Mitogen Induced (PHA) Human Lymph. Prolif. ([3]; 10-100 (unit not given)): -50%
Maximum Percent Change, Mitogen Induced (PHA) Human Lymph. Prolif. ([3]; .01-1.0 (unit not given)): 0%

CC(O)Cn1cnc2c(N)ncnc21 (stereo not shown) [NPT 15432]
% Inhibition of Hemadsorption Foci (influenza virus [1]; Test Compound Conc. >100 μg/ml, listed as 15432): 62%
potentiation of anti-influenza activity by DIP.PAcBA salt (influenza virus [2]): Yes

O=c1[nH]cnc2c1ncn2CCO [NPT 15425, 9-HYDROXYETHYL HYPOXANTHINE]
Maximum Percent Change, Mitogen Induced (Con A) Mouse Lymph. Prolif. (mouse lymphocytes; 1.0-10 (unit not given)): 0%
Maximum Percent Change, Mitogen Induced (Con A) Mouse Lymph. Prolif. (mouse lymphocytes; .01-1.0 (unit not given)): 11%
Maximum Percent Change, Mitogen Induced (PHA) Human Lymph. Prolif. ([3]; 1.0-10 (unit not given)): 0%
Maximum Percent Change, Mitogen Induced (PHA) Human Lymph. Prolif. ([3]; 10-100 (unit not given)): 0%
Maximum Percent Change, Mitogen Induced (PHA) Human Lymph. Prolif. ([3]; .01-1.0 (unit not given)): 100%
